According to article PMC7238120, “Strong and Selective Inhibitory Effects of the Biflavonoid Selamariscina A against CYP2C8 and CYP2C9 Enzyme Activities in Human Liver Microsomes” (Pharmaceutics, 2020):
Where two headings read alike, the source gives them in different places.

Molecular target: T1, CYP2B6 (Homo sapiens, UniProt P20813)
T1 construct: incubation mixtures containing pooled human liver microsomes (HLMs, XTreme 200, XenoTech); tissue XenoTech XTreme 200; host or cells: pooled human liver microsomes
T1 sequence (P20813 1-491): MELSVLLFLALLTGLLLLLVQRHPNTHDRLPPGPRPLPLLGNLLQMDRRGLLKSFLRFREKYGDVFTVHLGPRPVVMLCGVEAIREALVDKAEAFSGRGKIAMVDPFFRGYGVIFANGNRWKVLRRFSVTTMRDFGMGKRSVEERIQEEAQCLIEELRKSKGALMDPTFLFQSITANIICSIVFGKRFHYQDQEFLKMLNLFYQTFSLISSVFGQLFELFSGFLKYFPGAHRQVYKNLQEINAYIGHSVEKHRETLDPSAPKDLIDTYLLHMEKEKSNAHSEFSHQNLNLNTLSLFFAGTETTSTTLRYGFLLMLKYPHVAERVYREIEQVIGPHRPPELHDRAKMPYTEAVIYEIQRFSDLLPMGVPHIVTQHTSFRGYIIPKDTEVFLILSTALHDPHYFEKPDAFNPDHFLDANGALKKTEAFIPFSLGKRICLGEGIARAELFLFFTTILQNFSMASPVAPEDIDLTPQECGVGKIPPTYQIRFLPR
Assay: Inhibition of CYP2B6-catalyzed bupropion hydroxylation in pooled human liver microsomes
Assay type: in vitro ADME
Experimental: The inhibitory potential of the five biflavonoids on the metabolism of nine P450 probe substrates was evaluated using previously developed methods with minor modifications. Biflavonoids were dissolved in methanol. The final concentration of methanol in the incubation mixture was 1.0% (v/v). We used these P450 probe substrates: phenacetin for CYP1A2, coumarin for CYP2A6, bupropion for CYP2B6, amodiaquine for CYP2C8, diclofenac for CYP2C9, omeprazole for CYP2C19, dextromethorphan for CYP2D6, chlorzoxazone for CYP2E1 and midazolam for CYP3A (Table 1). […] The reaction was stopped by adding 50 μL of ice-cold acetonitrile containing 7 nM trimipramine (internal standard, IS). After centrifugation at 18,000 g (5 min, 4 °C), aliquots of supernatants were analyzed by LC-MS/MS (Shimadzu LCMS 8060 system, Shimadzu, Kyoto, Japan). All microsomal incubations were conducted in triplicate. We used HLMs to determine the mechanisms and constants (Ki values) for […] A inhibition of CYP1A2, CYP2B6, CYP2C8, CYP2C9 and CYP3A. […] The substrates were used at concentrations approximately near to their respective Km values. […] The other conditions were the same as in the cytochrome P450 inhibition study. […] Phenomenex, Torrance, CA, USA) and analyzed using a Shimadzu LCMS 8060 triple-quadrupole mass spectrometer coupled with a Nexera X2 ultra high-performance liquid chromatography system (Shimadzu, Kyoto, Japan) equipped with an electrospray ionization interface. The mobile phase consisted of 0.1% formic acid in water (A) and 0.1% formic acid in acetonitrile (B). […] The flow rate was 0.2 mL/min. Electrospray ionization was performed in positive-ion mode at 4000 V or in negative-ion mode at -3500 V. […] Quantitation was conducted in selected reaction monitoring (SRM) modes with the precursor-to-product ion transition for each metabolite (Table 1 and Table 2). We analyzed the data with Shimadzu LabSolution LC-MS software. The IC50 values were calculated by WinNonlin software (Pharsight, Mountain View, CA, USA). The type of inhibition and the apparent kinetic parameters for inhibitory activity (Ki) were determined by following several criteria: visual inspection of Dixon plots, Lineweaver-Burk double reciprocal plots, and secondary plots of Lineweaver-Burk plots versus biflavonoid concentrations, the size of the sum of squares of the residuals, Akaike Information Criteria values, the S.E. and 95% confidence interval of the parameter estimates from the nonlinear regression analysis using the WinNonlin software. The models tested included competitive, competitive partial, noncompetitive, noncompetitive partial, uncompetitive, uncompetitive partial, and mixed-type inhibition.

[1] = substrate bupropion 50 µM, pooled HLMs, read-out: IC50, P450 2B6

SMILES	IC50 [1]	other results
O=c1cc(-c2ccc(O)c(-c3c(O)cc(O)c4c(=O)cc(-c5ccc(O)cc5)oc34)c2)oc2cc(O)cc(O)c12 [amentoflavone]		IC50: 7.1 µM
O=c1cc(-c2ccc(O)cc2)oc2c(-c3c(O)cc(O)c4c(=O)cc(-c5ccc(O)cc5)oc34)c(O)cc(O)c12 [cupressuflavone]	6.7 µM	
CC(C)(O)c1ccccc1CC[C@@H](SCC1(CC(=O)O)CC1)c1cccc(/C=C/c2ccc3ccc(Cl)cc3n2)c1 [montelukast, reference compound]	> 50 µM	inhibition at 10 min, 5 µM (human, pooled human liver microsomes, probe bupropion, inhibitor 5 μM, pooled HLMs): 20.4%

The next lines start with results.

IC50 [1]	SMILES	other results
5.7 µM	O=c1cc(-c2ccc(O)c(-c3c(O)cc4oc(-c5ccc(O)cc5)cc(=O)c4c3O)c2)oc2cc(O)cc(O)c12 [robustaflavone]	
5.3 µM	O=C1CC(c2cc(-c3c(O)ccc4c(=O)cc(-c5ccc(O)cc5)oc34)c(O)cc2O)Oc2cc(O)cc(O)c21 (stereo not drawn) [selamariscina A]	Mode of Inhibition, CYP2B6 bupropion (HLMs): Noncompetitive; Ki (HLMs, average ± standard error, triplicate): 7.9 ± 1.1 µM
6.4 µM	O=c1cc(-c2ccc(O)c(-c3c(-c4ccc(O)cc4)oc4cc(O)cc(O)c4c3=O)c2)oc2cc(O)cc(O)c12 [taiwaniaflavone]	
